# Measurements taken from patent US20110165115A1, “SYNERGISTIC ATTRACTANTS FOR PESTIFEROUS SOCIAL INSECTS” (STERLING INTERNATIONAL INC., priority 2010, published 2011).
# Columns and labels:
# [1] = system: V. vidua; conditions: background; cited from earlier work
# [2] = system: yellowjackets occurring in the Eastern United States, hornets and paper wasps; conditions: background; cited from earlier work
# [3] = system: V. pensylvanica; conditions: background; cited from earlier work
# [4] = system: V. vulgaris; assay: Field trapping Experiment 1, Rescue W•H•Y traps; type: in vivo, Vespula vulgaris; conditions: Exp 1; HIPV added to WHY attractant in the top chamber, or WHY alone
# Method: (§1) Three field trapping experiments were carried out during late July to early August 2009, in residential and woody areas around Spokane, Wash., USA, using the newly marketed Rescue® W•H•Y traps (www.rescue.com). As used herein, the W•H•Y trap is a trap in accordance with the description of United States Patent Application Publication No. 2009/0151228. The W•H•Y trap has a top chamber and a bottom chamber. The top chamber is baited with two attractants—one of which is a solid contained in a vial (2-methyl-1-butanol) and the other a liquid mixed with water (acetic acid), herein referred to as the W•H•Y top attractant. The bottom chamber is baited with a liquid attractant (heptyl butyrate) poured onto a cotton pad, herein referred to as the W•H•Y bottom attractant. Separation of the top and bottom attractants (otherwise antagonistic to each other when released from the same chamber) in two chambers was a design feature of this trap and creates two focal attraction sources from one trap for different species of wasps, hornets, and yellowjackets. Traps were hung 1.5-2.0 m above the ground on either the fence or tree branches ca. 5 m apart within each trap line. For each trapping experiment, six sets of traps were deployed with their initial trap positions within each set being randomized. To minimize positional effects and obtain more replications, wasp collections and trap re-randomization were carried out when ≧10-20 wasps were caught in the best trap. Each replicate lasted several days depending on wasp flight activity. Captured wasps were removed from the traps and kept in the zip-bags before taking back to the laboratory for recording of the species, gender status, and catch.
# (§2) Experiment 3 (Aug. 5-13, 2009) was conducted to determine the potential behavioral activity of different doses of (E)-4,8-dimethyl-1,3,7-nonatriene alone. The individual (or different doses) HIPVs were loaded into either polyethylene bags or centrifuge tube type of dispensers, and released from the top of the W•H•Y trap chamber. W•H•Y trap attractants (both top and bottom or top only) alone and water (top chamber only) were included in the test as positive and blank controls, respectively. The dispenser types, loading and release rates of the tested semiochemicals are described in Tables 1, 2 and 3.
# (§3) Trap catch data were converted to proportion (P) of total captured wasps within each replicate. Data were then transformed by arcsin√P to meet the assumptions of normality and homogeneity of variances for ANOVA. Means were compared by ANOVA followed by the Ryan-Einot-Gabriel-Welsh (REGW) multiple Q test (SPSS 16.0 for Windows) at α=0.05.
# [5] = system: D. arenaria; assay: Field trapping Experiment 1, Rescue W•H•Y traps; type: in vivo, Dolichovespula arenaria; conditions: Exp 1; HIPV added to WHY attractant in the top chamber, or WHY alone
# Method: as §1
# (§4) Experiment 1 (Jul. 22-30, 2009) tested ten synthetic HIPV candidates [(E)-2-hexenal, (Z)-3-hexen-1-ol, (Z)-3-hexenyl acetate, cis-ocimene, linalool, methyl salicylate, geranyl acetate, trans-β-caryophyllene, trans-β-farnesene and (E)-4,8-dimethyl-1,3,7-nonatriene], including several paper wasp EAD-active compounds (see FIG. 2 for details), to determine their potential synergistic effect on the Rescue® W•H•Y trap attractants to paper wasps, yellowjackets, and hornets. Experiment 2 (Aug. 5-13, 2009) tested behavioral responses of the paper wasps and yellowjackets to the Rescue® W•H•Y trap attractants (top attractants only) and its combination with (E)-4,8-dimethyl-1,3,7-nonatriene, one of the EAD-active and behaviorally significant HIPVs, in a dose-response fashion. Experiment 3 (Aug. 5-13, 2009) was conducted to determine the potential behavioral activity of different doses of (E)-4,8-dimethyl-1,3,7-nonatriene alone. The individual (or different doses) HIPVs were loaded into either polyethylene bags or centrifuge tube type of dispensers, and released from the top of the W•H•Y trap chamber. W•H•Y trap attractants (both top and bottom or top only) alone and water (top chamber only) were included in the test as positive and blank controls, respectively. The dispenser types, loading and release rates of the tested semiochemicals are described in Tables 1, 2 and 3.
# as §3
# [6] = system: D. maculata; assay: Field trapping Experiment 1, Rescue W•H•Y traps; type: in vivo, Dolichovespula maculata; conditions: Exp 1; HIPV added to WHY attractant in the top chamber, or WHY alone
# Method: as §1, §4, §3
# [7] = system: V. consobrina; type: in vivo, Vespula consobrina; conditions: Exp 1; HIPV added to WHY attractant in the top chamber, or WHY alone
# Method: as §1, with “catch. […]” for “catch.”
# as §3
# [8] = system: P. aurifer; assay: Field trapping Experiment 1, Rescue W•H•Y traps; type: in vivo, Polistes aurifer; conditions: Exp 1; HIPV added to WHY attractant in the top chamber, or WHY alone
# Method: as §1, §2, §3
# [9] = system: V. acadica; assay: Field trapping Experiment 1, Rescue W•H•Y traps; type: in vivo, Vespula acadica; conditions: Exp 1; HIPV added to WHY attractant in the top chamber, or WHY alone
# Method: as §1, §2, §3
# [10] = system: P. dominulus; assay: Field trapping Experiment 1, Rescue W•H•Y traps; type: in vivo, Polistes dominulus; conditions: Exp 1; HIPV added to WHY attractant in the top chamber, or WHY alone
# Method: as §1, §2, §3
# [11] = system: V. pensylvanica; assay: Field trapping Experiment 1, Rescue W•H•Y traps; type: in vivo, Vespula pensylvanica; conditions: Exp 1; HIPV added to WHY attractant in the top chamber, or WHY alone
# Method: as §1, §2, §3
# [12] = system: yellowjackets; assay: Field trapping Experiment 1, top chamber catches; type: in vivo; conditions: Exp 1; HIPV combined with W•H•Y attractant (acetic acid and 2-methyl-1-butanol) in the top chamber
# Method: as §1
# Experiment 3 (Aug. 5-13, 2009) was conducted to determine the potential behavioral activity of different doses of (E)-4,8-dimethyl-1,3,7-nonatriene alone. The individual (or different doses) HIPVs were loaded into either polyethylene bags or centrifuge tube type of dispensers, and released from the top of the W•H•Y trap chamber. […]
# [13] = system: Polistes dominulus worker antennae; assay: GC-EAD of cherry branch aeration samples; conditions: aeration of severely damaged cherry branches; at current release rates
# Method: Lapin cherry branches with severely damaged cherries and leaves and undamaged or slightly damaged branches were collected from a cherry orchard at Creston, Canada, on Jul. 29, 2009, and were transported to the Sterling International, Inc. lab (Spokane, Wash.) on the same day and kept at 4° C. before aerations. Headspace volatiles from the cherry branches (damaged or undamaged) were sampled by a battery operated pump and a high density polyacetate oven bag (48.2×59.6 cm Reynolds® Oven Bag; Richmond, Va., USA) enclosure with one activated charcoal filter tube in the air inlet, on Jul. 30, 2009. The volatiles in the enclosure were trapped on one Porapak Q tube (50/80 mesh; 30 mg in Teflon tube: 3 mm×35 mm) for 2.5 hr (airflow 300 ml/min) and extracted with 1 ml redistilled pentane. Aeration samples of the cherry branches (damaged or undamaged/slightly damaged) were injected (3 μl) splitless into a Varian CP-3800 GC equipped with a polar column (HP-INNOWax; 30 m×0.53 mm×1.0 μm film thickness; […] Helium was used as the carrier gas, and the injector and detector temperatures were 250° C. and 300° C., respectively. Column temperature was 50° C. for 1 min, rising to 240° C. at 10° C./min, and then held for 10 min. The outlet for the EAD was held in a humidified air stream flowing at 0.5 m/sec over the antennal preparation. EAD recordings were made using silver wire-glass capillary electrodes filled with Beadle-Ephrussi Ringer on freshly cut antennae. The antennal signals were stored and analyzed on a PC equipped with a serial IDAC interface box and the program EAD ver. 2.5 (Syntech, Hilversum, The Netherlands). […] (See FIG. 2.) The same chemicals were also tested on beneficial insect antennae from Chrysopa oculata, Myrmeleon crudelis, Podisus maculiventris, and Hippodarnia convergens. (See […] active peaks in the aeration samples were identified by GC-MS on an HP 6890 GC series coupled with an HP 5973 Mass Selective Detector using the same type of GC column and conditions as described above. Compounds were identified by comparison of retention times with those of authentic standards and with mass spectra of standards.
# [14] = system: V. atropilosa; type: in vivo, Vespula atropilosa; conditions: Exp 1; HIPV added to WHY attractant in the top chamber, or WHY alone
# Method: as §1, with “catch. […]” for “catch.”
# as §3
# [15] = system: P. dominulus workers antennae; assay: GC-EAD of synthetic mixture of known HIPVs; parameters: species or system Polistes dominulus; conditions: 100 ng/μl each in hexane
# Method: Aeration samples of the cherry branches (damaged or undamaged/slightly damaged) were injected (3 μl) splitless into a Varian CP-3800 GC equipped with a polar column (HP-INNOWax; 30 m×0.53 mm×1.0 μm film thickness; Agilent Technologies, Wilmington, Del., USA) and a 1:1 effluent splitter that allowed simultaneous flame ionization detection (FID) and electroantennographic detection (EAD) of the European paper wasp (Polistes dominulus) worker antennae to the separated volatile compounds. Helium was used as the carrier gas, and the injector and detector temperatures were 250° C. and 300° C., respectively. Column temperature was 50° C. for 1 min, rising to 240° C. at 10° C./min, and then held for 10 min. The outlet for the EAD was held in a humidified air stream flowing at 0.5 m/sec over the antennal preparation. EAD recordings were made using silver wire-glass capillary electrodes filled with Beadle-Ephrussi Ringer on freshly cut antennae. The antennal signals were stored and analyzed on a PC equipped with a serial IDAC interface box and the program EAD ver. 2.5 (Syntech, Hilversum, The Netherlands). In addition, GC-EAD responses to a synthetic mixture (100 ng/μl each) containing nine known HIPVs including cis-3-hexen-1-ol, cis-3-hexenyl acetate, trans-β-ocimene, (E)-4,8-dimethyl-1,3,7-nonatriene, linalool, methyl salicylate, geranyl acetate, trans-β-caryophyllene and trans-β-farnesene were tested on the P. dominulus workers. (See FIG. 2.) The same chemicals were also tested on beneficial insect antennae from Chrysopa oculata, Myrmeleon crudelis, Podisus maculiventris, and Hippodarnia convergens. (See FIG. 6.) Antennally active peaks in the aeration samples were identified by GC-MS on an HP 6890 GC series coupled with an HP 5973 Mass Selective Detector using the same type of GC column and conditions as described above. Compounds were identified by comparison of retention times with those of authentic standards and with mass spectra of standards.
SMILES,attraction [1],attraction [2],attraction [3],Total Yellowjacket Catches V. vulgaris [4],Total Yellowjacket Catches D. arenaria [5],Total Yellowjacket Catches D. maculata [6],Total Yellowjacket Catches V. consobrina [7],Total Paper Wasps P. aurifer [8],Total Yellowjacket Catches V. acadica [9],Total Paper Wasps P. dominulus [10],Total Yellowjacket Catches V. pensylvanica [11],effect on trap catches of yellowjackets in the top chambers [12],EAD response of worker antennae [13],Total Yellowjacket Catches V. atropilosa [14],EAD response of worker antennae [15]
"CCCCC/C=C\C=C\C(=O)OCC [ethyl (E,Z)-2,4-decadienoate]",attracted,,,,,,,,,,,,,,
CCCCCCCOC(=O)CCC [heptyl butyrate],,ineffective,as attractive,,,,,,,,,,,,
"C=C/C(C)=C/CC=C(C)C [Ocimene, cis-ocimene]",,,,52,11,17,0,17,0,29,402,significant synergistic effect,did not elicit significant EAD-responses,2,
"C=C1CC/C=C(\C)CC[C@@H]2[C@@H]1CC2(C)C (relative stereo) [β-Caryophyllene, trans-β-caryophyllene]",,,,51,5,0,1,12,2,35,234,,,1,No repeatable EAD-responses
"CC=CC=CCOC(=O)CCC [2,4-hexadienyl butyrate]",,,powerfully attractive,,,,,,,,,,,,
"C=CC(=C)CC/C=C(\C)CCC=C(C)C [E-β-Farnesene, trans-β-farnesene]",,,,36,10,8,0,13,0,29,321,,,1,No repeatable EAD-responses
